# Assay results taken from patent US6444420B2, “Use of GPR30 receptor ligands to mediate neurotrophic action” (The Board of Trustees of the Leland Stanford Junior …, priority 1999, dated 2002).
# “Also recorded” adds a separate entry of the source.
# Experiments:
# [1] = test system: mitogen-activated protein (MAP) kinases; conditions: literature, Singh et al. (1999); cited from earlier work
# [2] = test system: Rap1; experiment: Rap1 activation pull-down assay in PC12 cells; type: cell-based; conditions: for Effect on Rap1 activation induced by 17β-estradiol: 100 nM 17β-estradiol plus 1 μM tamoxifen
# Method: FIGS. 2A, 2B, 2C, 2D: 17β-estradiol elicits Rap1, but not Ras, activation in PC12 cells. Serum-starved PC12 cells were treated with 100 nM 17β-estradiol for the indicated time intervals. Activated Ras (A) and Rap1 (B) were precipitated from cell lysates and analyzed as described in the Materials and Methods. […] Tomaxifen itself has no effect on Rap1 activation in PC12 cells D.
# Drug Screening Assays: These are used to identify GPR30 ligands that bind to and activate the GPR30 receptor. Drug screening identifies agents that enhance GPR30 activity. Of particular interest are screening assays for agents that have a low toxicity for human cells. In vitro or in vivo binding assays can be used to assess the extent to which a compound behaves as a specific ligand. Other assays are available to test for the activation of signaling pathways by ligand binding. One assay based on the finding that GPR30 activation results in the activation of the small GTPase Rap1, and of the other enzymes in the MAP kinase signaling pathway that is activated by Rap1. The assay for evaluating the activation of Rap1 examines the extent to which Rap1 is bound to GTP and employs a method as described by Herrmann et al. (1995) J. Biol. Chem 270:2901-2905. A wide variety of assays are available to assess the activation status of the enzymes downstream from Rap1. These include in vitro kinase assays for B-Raf, MEK, MAP kinase and Rsk (Cowley et al. (1994) Cell 77:841-852; Vossler et al. (1997) Cell 89:73-82). The activation of these proteins and some of their downstream targets (e.g. Elk-1 and CREB) may also be assessed through the use of antibodies to phosphorylated tyrosine or serine or threonine residues, which marks their active state (Payne et al. (1991) EMBO J. 10(4):885-892).
# (§1) The reagents used in these studies were those specified in the original references to methods employed, unless otherwise specified. We used established cell culture methods for growing cells and for examining their morphological responses (Zhou et al. (1994) Proc. Natl. Acad. Sci USA 91(9):3824-3828). To examine gene expression for GPR30 and the classical ERs, standard methods were used to isolate mRNA and to analyze it by Northern blot and by RT-PCR (GIBCO-BRL, Bethesda, Md.). The activity of Rap1 and of Ras were assayed using pull-down assays with fusion proteins that bind specifically to the GTP-bound forms of these proteins, as described (Herrmann et al. (1995) J. Biol. Chem. 270:2901-2905). These fusion proteins were produced essentially as described by these authors. The activity of MAP kinase was determined by immunoblotting cell lysates with antibodies to phosphorylated MAP kinase (Payne et al. (1991) EMBO J. 10(4):885-892). The source of these antibodies was from New England Biolabs, Inc. (Beverley, Mass.).
# [3] = test system: Ras; experiment: Ras activation pull-down assay in PC12 cells; type: cell-based; conditions: serum-starved PC12 cells, 100 nM 17β-estradiol, indicated time intervals
# Method: Serum-starved PC12 cells were treated with 100 nM 17β-estradiol for the indicated time intervals. Activated Ras (A) and Rap1 (B) were precipitated from cell lysates and analyzed as described in the Materials and Methods. […] The activity of Rap1 and of Ras were assayed using pull-down assays with fusion proteins that bind specifically to the GTP-bound forms of these proteins, as described (Herrmann et al. (1995) J. Biol. Chem. 270:2901-2905). These fusion proteins were produced essentially as described by these authors.
# [4] = test system: Erk kinases (MAP kinase); experiment: Erk (MAP kinase) activation by immunoblot of PC12 cell lysates; type: cell-based; conditions: serum-starved PC12 cells, 100 nM 17β-estradiol, indicated time intervals
# Method: as §1, with “As in FIG. 2, serum-starved PC12 cells were treated with 100 nM 17β-estraldiol for the indicated time intervals. Cells were-rinsed and lysed in RIPA buffer. Proteins were separated on SDS-PAGE, blotted onto PVDF membrane. The blot was probed for activated Erks (i.e activated MAP kinase) using rabbit IgGs against activated Erk kinases (UBI). The reagents” for “The reagents”
# [5] = test system: 145 kDa intermediate neurofilament; experiment: 145 kDa intermediate neurofilament expression in PC12 cells (immunoblot); type: cell-based; conditions: serum-free media, 3 days
# From the text: FIG. 5: Induction of the 145 kDa intermediate neurofilament expression by 17β-estradioi in PC12 cells. PC12 cells were maintained in either serum-free media supplemented with either NGF or 17β-estradiol at the indicated concentrations for 3 days. Treated as well as control cells were lysed in RIPA buffer and the lysates were separated on SDS-PAGE, transferred onto PVDF membrane. The blot was probed with specific antibodies against the 145 kDa intermediate neurofilament.
# [6] = test system: PC12 cells; experiment: PC12 cell differentiation and survival in serum-free media; type: cell-based; conditions: serum-free media with 100 nM 17β-estradiol, 6 days
# Method: as §1, with “PC12 cells were maintained in either serum-free media (A) or serum-free media supplemented with 100 nM 17β-estradiol (B) for 6 days. Cells were monitored with phase-contrast microscope and typical images were captured using a CCD camera. Differentiated PC12 cells (arrows) can be observed with 17β-estradiol treatment (B), whereas massive cell death occurred in the control (A). The reagents” for “The reagents”, “J. 10(4):885-892). […]” for “J. 10(4):885-892). The source of these antibodies was from New England Biolabs, Inc. (Beverley, Mass.).”
molecule,measurement,setting,value
17β-estradiol,Tyrosine phosphorylation/activation of MAP kinases,[1],elicited rapid tyrosine phosphorylation/activation
C[C@]12CC[C@@H]3c4ccc(O)cc4CC[C@H]3[C@@H]1CC[C@@H]2O [17β-estradiol],Activation of Rap1 during the first 10 minutes of treatment,"[2]; PC12 cells, first 10 minutes",little effect
same,Activation of Rap1 at later times,"[2]; PC12 cells, later than 10 minutes",marked effect
same,Rap1 activation,"[2]; serum-starved PC12 cells, 100 nM 17β-estradiol, indicated time intervals",induces Rap1 activation; also recorded: activated Rap1
same,Ras activation,[3],no detectable Ras activation and not
same,Erk / MAP kinase activation (pERK),[4],induces prolonged Erk activation; also recorded: induced sustained activation
same,Expression of the 145 kDa intermediate neurofilament protein,[5],Induction; also recorded: increasing the level of expression
same,PC12 cell differentiation (neurite outgrowth),[6],induces PC12 cell differentiation; also recorded: induced the outgrowth of long neurites
same,PC12 cell survival under serum free culture,[6],prevented these cells from dying
"C[C@]12CC[C@@H]3c4ccc(O)cc4C[C@@H](CCCCCCCCC[S+]([O-])CCCC(F)(F)C(F)(F)F)[C@H]3[C@@H]1CC[C@@H]2O (some centres unmarked) [ICI 182,780]",Inhibition of estradiol-elicited extracellular signal-regulated protein kinase activation,[1],not
COc1cccc(-c2cc(=O)c3ccccc3o2)c1N [PD98059],Inhibition of estradiol-elicited extracellular signal-regulated protein kinase activation,[1],inhibited successfully
CC/C(=C(\c1ccccc1)c1ccc(OCCN(C)C)cc1)c1ccccc1 [tamoxifen],Effect on Rap1 activation induced by 17β-estradiol,[2]; PC12 cells,blocked the response
same,Effect on Rap1 activation induced by 17β-estradiol,"[2]; PC12 cells, listed as tomaxifen",can be blocked
same,Rap1 activation by the substance alone,"[2]; PC12 cells, tamoxifen alone",no effect
